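Protocol summary: plate cells (96-well), add compound at 5 concentrations, incubate 48 h, interpolate endpoints linearly. At the TGI there is no net growth.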
How the values were obtained:
Assay in all cases: inhibition of tumour cell growth, NCI panel, 48 h
A498 renal = tested on: A498 renal
ACHN renal = tested on: ACHN renal
BT-549 breast = tested on: BT-549 breast
CCRF-CEM leukemia = tested on: CCRF-CEM leukemia
DU-145 prostate = tested on: DU-145 prostate
EKVX NSCLC = tested on: EKVX NSCLC
HCC-2998 colon = tested on: HCC-2998 colon
HCT-116 colon = tested on: HCT-116 colon
HCT-15 colon = tested on: HCT-15 colon
HL-60(TB) leukemia = tested on: HL-60(TB) leukemia
HOP-62 NSCLC = tested on: HOP-62 NSCLC
HS 578T breast = tested on: HS 578T breast
HT29 colon = tested on: HT29 colon
K-562 leukemia = tested on: K-562 leukemia
KM12 colon = tested on: KM12 colon
LOX IMVI melanoma = tested on: LOX IMVI melanoma
M14 melanoma = tested on: M14 melanoma
MALME-3M melanoma = tested on: MALME-3M melanoma
MCF7 breast = tested on: MCF7 breast
MDA-MB-231 breast = tested on: MDA-MB-231 breast
MDA-MB-435 = tested on: MDA-MB-435
MOLT-4 leukemia = tested on: MOLT-4 leukemia
NCI-H226 lung = tested on: NCI-H226 lung
NCI-H23 lung = tested on: NCI-H23 lung
NCI-H460 lung = tested on: NCI-H460 lung
NCI-H522 lung = tested on: NCI-H522 lung
OVCAR-3 ovarian = tested on: OVCAR-3 ovarian
OVCAR-5 ovarian = tested on: OVCAR-5 ovarian
RPMI-8226 leukemia = tested on: RPMI-8226 leukemia
RXF 393 renal = tested on: RXF 393 renal
SF-268 CNS = tested on: SF-268 CNS
SF-539 CNS = tested on: SF-539 CNS
SK-MEL-2 melanoma = tested on: SK-MEL-2 melanoma
SK-MEL-28 melanoma = tested on: SK-MEL-28 melanoma
SK-OV-3 ovarian = tested on: SK-OV-3 ovarian
SN12C renal = tested on: SN12C renal
SNB-19 CNS = tested on: SNB-19 CNS
SNB-75 CNS = tested on: SNB-75 CNS
SR leukemia = tested on: SR leukemia
T-47D breast = tested on: T-47D breast
TK-10 renal = tested on: TK-10 renal
U251 CNS = tested on: U251 CNS
UACC-257 melanoma = tested on: UACC-257 melanoma
UACC-62 melanoma = tested on: UACC-62 melanoma
UO-31 renal = tested on: UO-31 renal

Measured: TGI

CCCCOC(=O)NC(Nc1ccc(S(N)(=O)=O)cc1)(C(F)(F)F)C(F)(F)F
> 100 µM: A498 renal | ACHN renal | BT-549 breast | CCRF-CEM leukemia | DU-145 prostate | EKVX NSCLC | HCC-2998 colon | HCT-116 colon | HCT-15 colon | HL-60(TB) leukemia | HOP-62 NSCLC | HS 578T breast | HT29 colon | K-562 leukemia | KM12 colon | LOX IMVI melanoma | M14 melanoma | MALME-3M melanoma | MCF7 breast | MDA-MB-231 breast | MDA-MB-435 | MOLT-4 leukemia | NCI-H226 lung | NCI-H23 lung | NCI-H460 lung | NCI-H522 lung | OVCAR-3 ovarian | OVCAR-5 ovarian | RPMI-8226 leukemia | RXF 393 renal | SF-268 CNS | SF-539 CNS | SK-MEL-2 melanoma | SK-MEL-28 melanoma | SK-OV-3 ovarian | SN12C renal | SNB-19 CNS | SNB-75 CNS | SR leukemia | T-47D breast | TK-10 renal | U251 CNS | UACC-257 melanoma | UACC-62 melanoma | UO-31 renal
